Test results taken from the NIST ThermoML archive (doi:10.1021/je400149j).

Assays:
[1] = relative permittivity at zero frequency (dimensionless); conditions: 101 kPa, Liquid, impedance/gain phase analyzer
[2] = Crystal; Derived from relative static permittivity measurements of the liquid and solid states
[3] = relative permittivity at zero frequency (dimensionless); xn = mol fraction of the nth substance listed; conditions: 101 kPa, Liquid, impedance/gain phase analyzer, x2 = 0

C[S+](C)[O-] [dimethyl sulfoxide]
[1]
Conditions | relative permittivity at zero frequency
291.15 K | 47.15
293.15 K | 47.09
295.15 K | 46.84
297.15 K | 46.64
299.15 K | 46.39
301.15 K | 46.18
303.15 K | 45.94
305.15 K | 45.63
307.15 K | 45.39
309.15 K | 45.14
311.15 K | 44.88
313.15 K | 44.64
315.15 K | 44.34
317.15 K | 44.11
319.15 K | 43.87
321.15 K | 43.58
323.15 K | 43.31
325.15 K | 43.07
327.15 K | 42.78
329.15 K | 42.56
331.15 K | 42.27
333.15 K | 42

Conditions | Normal melting temperature [°C]
[2] | 18.1

O [water]
[1]
Conditions | relative permittivity at zero frequency
273.15 K | 87
275.15 K | 86.36
277.15 K | 85.67
279.15 K | 84.84
281.15 K | 84.25
283.15 K | 83.37
285.15 K | 82.73
287.15 K | 82.02
289.15 K | 81.33
291.15 K | 80.65
293.15 K | 79.98
295.15 K | 79.32
297.15 K | 78.42
299.15 K | 77.85
301.15 K | 77.29
303.15 K | 76.61
305.15 K | 75.95
307.15 K | 75.3
309.15 K | 74.65
311.15 K | 73.97
313.15 K | 73.29
315.15 K | 72.68
317.15 K | 72.09
319.15 K | 71.44
321.15 K | 70.76
323.15 K | 70.14
325.15 K | 69.54
327.15 K | 68.94
329.15 K | 68.3
331.15 K | 67.68
333.15 K | 67.07

Conditions | Normal melting temperature [°C]
[2] | 0.1

O [water] + C[S+](C)[O-]
[3]
Conditions | relative permittivity at zero frequency
273.15 K | 87
275.15 K | 86.36
277.15 K | 85.67
279.15 K | 84.84
281.15 K | 84.25
283.15 K | 83.37
285.15 K | 82.73
287.15 K | 82.02
289.15 K | 81.33
291.15 K | 80.65
293.15 K | 79.98
295.15 K | 79.32
297.15 K | 78.42
299.15 K | 77.85
301.15 K | 77.29
303.15 K | 76.61
305.15 K | 75.95
307.15 K | 75.3
309.15 K | 74.65
311.15 K | 73.97
313.15 K | 73.29
315.15 K | 72.68
317.15 K | 72.09
319.15 K | 71.44
321.15 K | 70.76
323.15 K | 70.14
325.15 K | 69.54
327.15 K | 68.94
329.15 K | 68.3
331.15 K | 67.68
333.15 K | 67.07
